Source: article PMC4702177, “Discovering new mTOR inhibitors for cancer treatment through virtual screening methods and in vitro assays” (Scientific Reports, 2016)
pIC50: −log10 of the molar value.

Legend:
[1] = tested on: MGC-803 (human gastric cancer); test: In vitro cell proliferation assay; format: cell-based; settings: Homo sapiens, MGC-803, 48 h, 48 h, highest concentration 100 μM, read-out: IC50 (anti-proliferative)
Experimental: (§1) Most human breast cancer cells and cervical cancer cells become resistant to current chemotherapeutic drugs due to mutation of apoptotic mechanisms. It has been reported that MCF-7 cells are resistant to most of the drugs approved by the US Food and Drug Administration (FDA), including paclitaxel, doxorubicin, 5-fluorouracil, etoposide, and camptothecin[31][32].
(§2) Cell proliferation was measured with an MTS assay (CellTiter 96 Aqueous ONE Solution kit; Promega, Madison, USA). MCF-7, HeLa, MGC-803, C6 and U87 cells in log-phase were seeded (5 × 10^3 cells/well) in 96-well plates for 24 h, and then the medium were replaced with fresh medium containing different concentrations of compounds. […] After incubation for 48 h, the cells were further incubated with 20 μL of MTS for 1–4 h at 37 °C in a humidified incubator with 5% CO2. The absorbance at 490 nm was measured using a mircoplate reader (Model680, Bio-Rad; Hercules, CA, USA). The inhibition rate (%) was calculated as equation (1): […]
(§3) IC50 values were determined from the results of at least three independent tests and calculated from the inhibition curves.

[2] = tested on: MCF-7 (human breast cancer cell); test: In vitro cell proliferation assay; format: cell-based; settings: Homo sapiens, MCF7, 48 h, 48 h, highest concentration 100 μM, read-out: IC50 (anti-proliferative)
Experimental: as §1, §2, §3

[3] = tested on: HeLa (human cervical cancer cell); test: In vitro cell proliferation assay; format: cell-based; settings: Homo sapiens, 48 h, highest concentration 100 μM, read-out: IC50 (anti-proliferative)
Experimental: as §1, §2, §3

C6 (Glioma cell) = test: In vitro cell proliferation assay; format: cell-based; settings: C6 glioma, 48 h, highest concentration 100 μM, read-out: IC50 (anti-proliferative)
Experimental: as §1, §2, §3

[4] = tested on: mTORC2 (Akt phosphorylation on Ser473) in HeLa cells; test: Western blot of mTORC2 activity; format: cell-based, human
Experimental: Accordingly, we checked mTORC2 activity by measuring Akt phosphorylation levels on Ser473 in HeLa cells. […] In other words, the mechanism of HeLa cell death induced by 17 was apoptosis, and induction was achieved by targeting both mTORC1 and mTORC2 simultaneously.
HeLa cells were cultured in a six-well plate in the presence of compound 17 for 48 h. Samples were prepared by lysing PBS-washed cells with RIPA buffer (Beyotime, Haimen, China) consisting of 1% Nonidet P-40, 0.5% sodium deoxycholate, 0.1% SDS, and 50 mM Tris-HCl, pH 7.4, supplemented with NaF, NaVO4, EDTA and a protease inhibitor cocktail (Roche). Proteins were subjected to SDS-PAGE gel electrophoresis and transferred onto a polyvinylidene difluoride membrane (Hybond-P; GE Healthcare Life Sciences, Piscataway, NJ). Immunoblotting was performed using rabbit monoclonal antibodies (Cell Signaling Technology; Danvers, MA) against p70S6K1 phosphorylated on Thr 389 (#9234) and total p70S6K1 (#2708), 4E-BP1 phosphorylated on Thr 37 (#2855) and total 4E-BP1 (#9452), Akt phosphorylated on Thr 308 (#4056) or Ser 473 (#4060) and total Akt (#4685), cleaved caspase-3 (#9664), PARP (#9532), and β-actin (#3700). […] The densitometry of each band was quantified by FluorChem 8000 (AlphaInnotech, San Leandro, CA).

pIC50 [1]: 5.46 | pIC50 [2]: 5.72 | pIC50 [3]: 5.56 | pIC50 (C6 (Glioma cell)): 4.96
Structure (SMILES): Nc1nn2c(nc(N)c3c(N)n[nH]c32)c1/N=N/c1ccccc1 [Compound 17]
P-Akt Ser473 [4]: can reduce P-Akt Ser473
